Laboratory results: paper PMC5218480 (PLoS ONE, 2017)

System: MV-4-11 cells
Experiment: Gene expression microarray analysis (Affymetrix PrimeView) and GSEA
Assay type: cell-based, human
Design: RFU PODN (11730768_x_at) / Fold change /veh PODN (11730768_x_at) / RFU LINC00158 (11744669_a_at) / Fold change /veh LINC00158 (11744669_a_at) / RFU DUSP10 (11751237_a_at) / Fold change /veh DUSP10 (11751237_a_at) / RFU ID3 (11757404_x_at) / Fold change /veh ID3 (11757404_x_at) / RFU PLEKHG5 (11737974_s_at) / Fold change /veh PLEKHG5 (11737974_s_at) / RFU LRRC4B (11730491_at) / Fold change /veh LRRC4B (11730491_at) / RFU GIMAP4 (11747438_a_at) / Fold change /veh GIMAP4 (11747438_a_at) / RFU KRT8 (11758183_x_at) / Fold change /veh KRT8 (11758183_x_at) / RFU CNN1 (11734310_a_at) / Fold change /veh CNN1 (11734310_a_at) / RFU VPS37D (11726825_at) / Fold change /veh VPS37D (11726825_at) / RFU C10orf10 (11716522_x_at) / Fold change /veh C10orf10 (11716522_x_at) / RFU KIR2DL2 /// KIR2DL4 /// KIR2DL5A /// KIR2DL5B /// KIR2DS1 /// KIR2DS2 /// KIR2DS3 /// KIR2DS4 /// KIR3DL3 /// KIR3DL3 /// KIR3DS1 (11738374_at) / Fold change /veh KIR2DL2 /// KIR2DL4 /// KIR2DL5A /// KIR2DL5B /// KIR2DS1 /// KIR2DS2 /// KIR2DS3 /// KIR2DS4 /// KIR3DL3 /// KIR3DL3 /// KIR3DS1 (11738374_at) / RFU C1QL1 (11718748_at) / Fold change /veh C1QL1 (11718748_at) / RFU TMPRSS4 (11747572_a_at) / Fold change /veh TMPRSS4 (11747572_a_at) / RFU HAMP (11756126_x_at) / Fold change /veh HAMP (11756126_x_at) / RFU RNFT2 (11725882_a_at) / Fold change /veh RNFT2 (11725882_a_at) / RFU NR4A2 (11747474_a_at) / Fold change /veh NR4A2 (11747474_a_at) / RFU ABCC12 (11746883_a_at) / Fold change /veh ABCC12 (11746883_a_at) / RFU TMEM136 (11760407_x_at) / Fold change /veh TMEM136 (11760407_x_at) / RFU CLDN22 /// WWC2 (11732394_at) / Fold change /veh CLDN22 /// WWC2 (11732394_at) / RFU HLA-DPB1 (11760878_x_at) / Fold change /veh HLA-DPB1 (11760878_x_at) / RFU SPINT1 (11716480_a_at) / Fold change /veh SPINT1 (11716480_a_at) / RFU GAP43 (11754022_s_at) / Fold change /veh GAP43 (11754022_s_at) / RFU A4GNT (11735810_at) / Fold change /veh A4GNT (11735810_at) / RFU PRB3 (11715151_x_at) / Fold change /veh PRB3 (11715151_x_at) / RFU TUBB4B (11761932_at) / Fold change /veh TUBB4B (11761932_at) / RFU CAPN14 (11732068_a_at) / Fold change /veh CAPN14 (11732068_a_at) / RFU TMCC2 (11721928_a_at) / Fold change /veh TMCC2 (11721928_a_at) / RFU IRGQ (11745062_a_at) / Fold change /veh IRGQ (11745062_a_at) / RFU FAM174B (11720279_a_at) / Fold change /veh FAM174B (11720279_a_at) / RFU TMPRSS4 (11748680_a_at) / Fold change /veh TMPRSS4 (11748680_a_at) / RFU FAM212B (11763350_a_at) / Fold change /veh FAM212B (11763350_a_at) / RFU PLEKHG5 (11743358_a_at) / Fold change /veh PLEKHG5 (11743358_a_at) / RFU ZSCAN30 (11745921_a_at) / Fold change /veh ZSCAN30 (11745921_a_at) / RFU CMKLR1 (11741424_a_at) / Fold change /veh CMKLR1 (11741424_a_at) / RFU LOC101060620 /// MAPK8IP1 (11723275_at) / Fold change /veh LOC101060620 /// MAPK8IP1 (11723275_at) / RFU SPTSSB (11747773_x_at) / Fold change /veh SPTSSB (11747773_x_at) / RFU PRSS12 (11739890_at) / Fold change /veh PRSS12 (11739890_at) / RFU BIN1 (11741810_x_at) / Fold change /veh BIN1 (11741810_x_at) / RFU WNT11 (11732464_a_at) / Fold change /veh WNT11 (11732464_a_at) / RFU C10orf10 (11716521_a_at) / Fold change /veh C10orf10 (11716521_a_at) / RFU C5orf56 (11738089_at) / Fold change /veh C5orf56 (11738089_at) / RFU CYB561 (11721691_x_at) / Fold change /veh CYB561 (11721691_x_at) / RFU ANKRD19P (11752326_a_at) / Fold change /veh ANKRD19P (11752326_a_at) / RFU OR2T12 /// OR2T33 /// OR2T8 (11738714_s_at) / Fold change /veh OR2T12 /// OR2T33 /// OR2T8 (11738714_s_at) / RFU VCAN (11748164_a_at) / Fold change /veh VCAN (11748164_a_at) / RFU JSRP1 (11732532_at) / Fold change /veh JSRP1 (11732532_at) / RFU KRTAP10-11 (11738290_x_at) / Fold change /veh KRTAP10-11 (11738290_x_at) / RFU MYO3A (11730013_a_at) / Fold change /veh MYO3A (11730013_a_at) / RFU EBF3 (11725865_a_at) / Fold change /veh EBF3 (11725865_a_at) / RFU CAMK2N1 (11719241_x_at) / Fold change /veh CAMK2N1 (11719241_x_at) / RFU C5orf56 (11738088_a_at) / Fold change /veh C5orf56 (11738088_a_at) / RFU OLFML3 (11715873_a_at) / Fold change /veh OLFML3 (11715873_a_at) / RFU LOC100653217 /// NTM (11731650_a_at) / Fold change /veh LOC100653217 /// NTM (11731650_a_at) / RFU MAPK11 (11762145_a_at) / Fold change /veh MAPK11 (11762145_a_at) / RFU FIZ1 (11724087_x_at) / Fold change /veh FIZ1 (11724087_x_at) / RFU OASL (11726364_x_at) / Fold change /veh OASL (11726364_x_at) / RFU SOX15 (11748057_x_at) / Fold change /veh SOX15 (11748057_x_at) / RFU CD79A (11719716_a_at) / Fold change /veh CD79A (11719716_a_at) / RFU HIST1H1D (11736915_at) / Fold change /veh HIST1H1D (11736915_at) / RFU CASKIN2 (11723855_a_at) / Fold change /veh CASKIN2 (11723855_a_at) / RFU LOC730098 (11760151_x_at) / Fold change /veh LOC730098 (11760151_x_at) / RFU OR4N2 (11742367_at) / Fold change /veh OR4N2 (11742367_at) / RFU PRRT2 (11749266_a_at) / Fold change /veh PRRT2 (11749266_a_at) / RFU SNX32 (11753110_a_at) / Fold change /veh SNX32 (11753110_a_at) / RFU CDHR5 (11726645_a_at) / Fold change /veh CDHR5 (11726645_a_at) / RFU RCAN1 (11760418_a_at) / Fold change /veh RCAN1 (11760418_a_at) / RFU FAM167A (11723789_a_at) / Fold change /veh FAM167A (11723789_a_at) / RFU FAM26E (11764081_at) / Fold change /veh FAM26E (11764081_at) / RFU ISYNA1 (11749810_s_at) / Fold change /veh ISYNA1 (11749810_s_at) / RFU ACY1 (11761880_at) / Fold change /veh ACY1 (11761880_at) / RFU 11764098_at / Fold change /veh 11764098_at / RFU SAMD14 (11745864_x_at) / Fold change /veh SAMD14 (11745864_x_at) / RFU NPB (11741838_a_at) / Fold change /veh NPB (11741838_a_at) / RFU TMPRSS6 (11731388_a_at) / Fold change /veh TMPRSS6 (11731388_a_at) / RFU KRTAP10-2 (11738614_at) / Fold change /veh KRTAP10-2 (11738614_at) / RFU ARHGAP8 /// PRR5-ARHGAP8 (11727945_x_at) / Fold change /veh ARHGAP8 /// PRR5-ARHGAP8 (11727945_x_at) / RFU KRTAP5-7 /// NADSYN1 (11734609_at) / Fold change /veh KRTAP5-7 /// NADSYN1 (11734609_at) / RFU RASL12 (11751679_a_at) / Fold change /veh RASL12 (11751679_a_at) / RFU CDKN2B (11736163_a_at) / Fold change /veh CDKN2B (11736163_a_at) / RFU PRF1 (11729649_at) / Fold change /veh PRF1 (11729649_at) / RFU, ZNF638 /// ZNF638-IT1 / Fold change vs veh, ZNF638 /// ZNF638-IT1 / RFU, PANK3 / Fold change vs veh, PANK3 / RFU, SH3YL1 / Fold change vs veh, SH3YL1 / RFU, ZEB2 / Fold change vs veh, ZEB2 / RFU, NRIP1 / Fold change vs veh, NRIP1 / RFU, PTTG1IP / Fold change vs veh, PTTG1IP / RFU, CAPN2 / Fold change vs veh, CAPN2 / RFU, MED14 / Fold change vs veh, MED14 / RFU, SNORA58 / Fold change vs veh, SNORA58 / RFU, C1orf63 / Fold change vs veh, C1orf63 / RFU, LRRFIP1 / Fold change vs veh, LRRFIP1 / RFU, NDUFAF7 / Fold change vs veh, NDUFAF7 / RFU, SLC12A2 / Fold change vs veh, SLC12A2 / RFU, IBTK / Fold change vs veh, IBTK / RFU, ESF1 / Fold change vs veh, ESF1 / Fold change vs veh, TMEM50B / RFU, TAOK1 / Fold change vs veh, TAOK1 / RFU, ACBD3 / Fold change vs veh, ACBD3 / RFU, TMA16 / Fold change vs veh, TMA16 / RFU, RWDD3 / Fold change vs veh, RWDD3 / RFU, BCAT1 / Fold change vs veh, BCAT1 / RFU, EDEM3 / Fold change vs veh, EDEM3 / RFU, TMEM33 / Fold change vs veh, TMEM33 / RFU, WDR75 / Fold change vs veh, WDR75 / RFU, AHCTF1 / Fold change vs veh, AHCTF1 / RFU, TFRC / Fold change vs veh, TFRC / RFU, ZDHHC17 / Fold change vs veh, ZDHHC17 / RFU, NOM1 / Fold change vs veh, NOM1 / RFU, ARL8B / Fold change vs veh, ARL8B / RFU, ZBTB11 / Fold change vs veh, ZBTB11 / RFU, TAMM41 / Fold change vs veh, TAMM41 / RFU, KIAA1704 /// LOC100996395 / Fold change vs veh, KIAA1704 /// LOC100996395 / RFU, ING1 / Fold change vs veh, ING1 / RFU, TRMT61B / Fold change vs veh, TRMT61B / RFU, FUBP3 / Fold change vs veh, FUBP3 / RFU, TP53 / Fold change vs veh, TP53 / RFU, TNKS2 / Fold change vs veh, TNKS2 / RFU, ZFP14 / Fold change vs veh, ZFP14 / RFU, ACTR2 / Fold change vs veh, ACTR2 / RFU, PPP3R1 / Fold change vs veh, PPP3R1 / RFU, PIK3R1 / Fold change vs veh, PIK3R1 / RFU, HNRNPA1 / Fold change vs veh, HNRNPA1 / RFU, RNF170 / Fold change vs veh, RNF170 / RFU, ZNF28 / Fold change vs veh, ZNF28 / RFU, RNGTT / Fold change vs veh, RNGTT / RFU, OGT / Fold change vs veh, OGT / RFU, BRD1 / Fold change vs veh, BRD1 / RFU, MARS / Fold change vs veh, MARS / RFU, ZNF655 / Fold change vs veh, ZNF655 / RFU, FAHD1 / Fold change vs veh, FAHD1 / RFU, BDP1 / Fold change vs veh, BDP1 / RFU, LRRCC1 / Fold change vs veh, LRRCC1 / RFU, ARID1A / Fold change vs veh, ARID1A / RFU, ZNF146 / Fold change vs veh, ZNF146 / RFU, ZNF330 / Fold change vs veh, ZNF330 / RFU, GPN3 / Fold change vs veh, GPN3 / RFU, C9orf123 / Fold change vs veh, C9orf123 / RFU, N4BP2L2 / Fold change vs veh, N4BP2L2 / RFU, ARFIP1 / Fold change vs veh, ARFIP1 / RFU, FAM179B / Fold change vs veh, FAM179B / RFU, BCL10 / Fold change vs veh, BCL10 / RFU, UHRF1BP1L / Fold change vs veh, UHRF1BP1L / RFU, BET1 / Fold change vs veh, BET1 / RFU, CNOT2 / Fold change vs veh, CNOT2 / RFU, ZNF268 / Fold change vs veh, ZNF268 / Fold change vs veh, ZNF507 / RFU, DGCR2 / Fold change vs veh, DGCR2 / RFU, WDSUB1 / Fold change vs veh, WDSUB1 / Fold change vs veh, HSP90B1 /// MIR3652 / RFU, ADSS / Fold change vs veh, ADSS / RFU, GK / Fold change vs veh, GK / RFU, ZNF148 / Fold change vs veh, ZNF148 / RFU, TAF9 / Fold change vs veh, TAF9 / RFU, SLC1A5 / Fold change vs veh, SLC1A5 / RFU, SLMO2 / Fold change vs veh, SLMO2 / RFU, ABCC4 / Fold change vs veh, ABCC4 / RFU, LOC101060439 /// RAP1B / Fold change vs veh, LOC101060439 /// RAP1B / RFU, RFX7 / Fold change vs veh, RFX7 / RFU, GTPBP10 / Fold change vs veh, GTPBP10 / RFU, CNEP1R1 / Fold change vs veh, CNEP1R1 / RFU, BIVM-ERCC5 /// ERCC5 / Fold change vs veh, BIVM-ERCC5 /// ERCC5 / RFU, ILF3 / Fold change vs veh, ILF3 / RFU 11762660_at / Fold change /veh 11762660_at / RFU VCAN (11757783_s_at) / Fold change /veh VCAN (11757783_s_at) / RFU DDX43 (11728927_at) / Fold change /veh DDX43 (11728927_at) / RFU KRT8 (11758188_x_at) / Fold change /veh KRT8 (11758188_x_at) / RFU NKD1 (11759106_at) / Fold change /veh NKD1 (11759106_at) / RFU SRD5A1 (11742802_a_at) / Fold change /veh SRD5A1 (11742802_a_at) / RFU TPSAB1 /// TPSB2 (11721975_s_at) / Fold change /veh TPSAB1 /// TPSB2 (11721975_s_at) / RFU GSTM3 (11746129_a_at) / Fold change /veh GSTM3 (11746129_a_at) / RFU IL23R (11737362_x_at) / Fold change /veh IL23R (11737362_x_at) / RFU TMEM51 (11727254_a_at) / Fold change /veh TMEM51 (11727254_a_at) / RFU PIWIL2 (11732686_x_at) / Fold change /veh PIWIL2 (11732686_x_at) / RFU ORM1 (11744905_x_at) / Fold change /veh ORM1 (11744905_x_at) / RFU CCDC152 (11743942_at) / Fold change /veh CCDC152 (11743942_at) / RFU ECM1 (11717891_a_at) / Fold change /veh ECM1 (11717891_a_at) / RFU IL23R (11748794_a_at) / Fold change /veh IL23R (11748794_a_at) / RFU TNFAIP8L3 (11732012_x_at) / Fold change /veh TNFAIP8L3 (11732012_x_at) / RFU MBOAT4 (11741988_at) / Fold change /veh MBOAT4 (11741988_at) / RFU 11764193_at / Fold change /veh 11764193_at / RFU TMEM53 (11763286_at) / Fold change /veh TMEM53 (11763286_at) / RFU MAGEB2 (11727129_at) / Fold change /veh MAGEB2 (11727129_at) / RFU TMEM200A (11744735_a_at) / Fold change /veh TMEM200A (11744735_a_at) / RFU CCDC152 (11751479_a_at) / Fold change /veh CCDC152 (11751479_a_at) / RFU FAM211A (11726209_a_at) / Fold change /veh FAM211A (11726209_a_at) / RFU RGS16 (11746705_a_at) / Fold change /veh RGS16 (11746705_a_at) / RFU VCAN (11755009_s_at) / Fold change /veh VCAN (11755009_s_at) / RFU RHOB (11743442_s_at) / Fold change /veh RHOB (11743442_s_at) / RFU RGS16 (11720943_a_at) / Fold change /veh RGS16 (11720943_a_at) / RFU RGS16 (11720944_at) / Fold change /veh RGS16 (11720944_at) / RFU, VPS4B / Fold change vs veh, VPS4B / RFU, CREB1 / Fold change vs veh, CREB1 / RFU, DNAJC13 / Fold change vs veh, DNAJC13 / RFU, GNAQ / Fold change vs veh, GNAQ / RFU, CDK5R1 / Fold change vs veh, CDK5R1 / RFU, ZRANB3 / Fold change vs veh, ZRANB3 / RFU, CUL4A / Fold change vs veh, CUL4A / RFU, CCNY / Fold change vs veh, CCNY / RFU, UFL1 / Fold change vs veh, UFL1 / RFU, COG3 / Fold change vs veh, COG3 / RFU, DIAPH2 / Fold change vs veh, DIAPH2 / RFU, SKA2 / Fold change vs veh, SKA2 / RFU, AFF3 / Fold change vs veh, AFF3 / RFU, LMF1 / Fold change vs veh, LMF1 / RFU, IPO11 / Fold change vs veh, IPO11 / RFU, DFFB / Fold change vs veh, DFFB / RFU, FOXP1 / Fold change vs veh, FOXP1 / RFU, CARD8 / Fold change vs veh, CARD8 / RFU, STRN3 / Fold change vs veh, STRN3 / RFU, ADK / Fold change vs veh, ADK / RFU, RASSF2 / Fold change vs veh, RASSF2 / RFU, WIPF1 / Fold change vs veh, WIPF1 / RFU, LARP1B / Fold change vs veh, LARP1B / RFU, RASA1 / Fold change vs veh, RASA1 / RFU, RB1 / Fold change vs veh, RB1 / RFU, PPFIA1 / Fold change vs veh, PPFIA1 / RFU, MAT2A / Fold change vs veh, MAT2A / RFU, CCT5 / Fold change vs veh, CCT5 / RFU, WDR92 / Fold change vs veh, WDR92 / RFU, CUX1 / Fold change vs veh, CUX1 / RFU, TTC7A / Fold change vs veh, TTC7A / RFU, TMEM135 / Fold change vs veh, TMEM135 / RFU, DEPTOR / Fold change vs veh, DEPTOR / RFU, CPM / Fold change vs veh, CPM / RFU, DNAJB6 / Fold change vs veh, DNAJB6 / RFU, CACNA2D3 / Fold change vs veh, CACNA2D3 / RFU, DTX4 / Fold change vs veh, DTX4 / RFU, TFCP2 / Fold change vs veh, TFCP2 / RFU, GMCL1 /// GMCL1P1 / Fold change vs veh, GMCL1 /// GMCL1P1 / RFU, AEBP2 / Fold change vs veh, AEBP2 / RFU, SNHG1 /// SNORD22 /// SNORD25 /// SNORD26 /// SNORD27 /// SNORD28 /// SNORD29 /// SNORD31 / Fold change vs veh, SNHG1 /// SNORD22 /// SNORD25 /// SNORD26 /// SNORD27 /// SNORD28 /// SNORD29 /// SNORD31 / Fold change (Aza/veh), C12orf56 (ProbeSet 11735607_a_at) / Fold change (ACY-1035/veh), C12orf56 (ProbeSet 11735607_a_at) / Fold change (Aza/veh), FGFR1OP (ProbeSet 11751329_s_at) / Fold change (ACY-1035/veh), FGFR1OP (ProbeSet 11751329_s_at) / Fold change (Aza/veh), VPS36 (ProbeSet 11739960_a_at) / Fold change (ACY-1035/veh), VPS36 (ProbeSet 11739960_a_at) / RFU SYPL1 (11715823_x_at) / Fold change /veh SYPL1 (11715823_x_at) / RFU IGFBP7 (11715501_s_at) / Fold change /veh IGFBP7 (11715501_s_at) / RFU REEP3 (11722064_at) / Fold change /veh REEP3 (11722064_at) / RFU IGLL1 (11728026_x_at) / Fold change /veh IGLL1 (11728026_x_at): dose or concentration left out as unconfirmed
Details: ProbeSet 11743567_s_at; LIST B

## Nc1ccc(-c2cccs2)cc1NC(=O)c1ccc2c(c1)cc(C1CC1)n2CCN1CCOCC1 [ACY-1035]
  RFU, ACBD3: 241.56 RFU
